The target of the assay is T1, Tyrosine-protein phosphatase non-receptor type 22 (Homo sapiens, UniProt Q9Y2R2).
T1 sequence (Q9Y2R2 whole entry): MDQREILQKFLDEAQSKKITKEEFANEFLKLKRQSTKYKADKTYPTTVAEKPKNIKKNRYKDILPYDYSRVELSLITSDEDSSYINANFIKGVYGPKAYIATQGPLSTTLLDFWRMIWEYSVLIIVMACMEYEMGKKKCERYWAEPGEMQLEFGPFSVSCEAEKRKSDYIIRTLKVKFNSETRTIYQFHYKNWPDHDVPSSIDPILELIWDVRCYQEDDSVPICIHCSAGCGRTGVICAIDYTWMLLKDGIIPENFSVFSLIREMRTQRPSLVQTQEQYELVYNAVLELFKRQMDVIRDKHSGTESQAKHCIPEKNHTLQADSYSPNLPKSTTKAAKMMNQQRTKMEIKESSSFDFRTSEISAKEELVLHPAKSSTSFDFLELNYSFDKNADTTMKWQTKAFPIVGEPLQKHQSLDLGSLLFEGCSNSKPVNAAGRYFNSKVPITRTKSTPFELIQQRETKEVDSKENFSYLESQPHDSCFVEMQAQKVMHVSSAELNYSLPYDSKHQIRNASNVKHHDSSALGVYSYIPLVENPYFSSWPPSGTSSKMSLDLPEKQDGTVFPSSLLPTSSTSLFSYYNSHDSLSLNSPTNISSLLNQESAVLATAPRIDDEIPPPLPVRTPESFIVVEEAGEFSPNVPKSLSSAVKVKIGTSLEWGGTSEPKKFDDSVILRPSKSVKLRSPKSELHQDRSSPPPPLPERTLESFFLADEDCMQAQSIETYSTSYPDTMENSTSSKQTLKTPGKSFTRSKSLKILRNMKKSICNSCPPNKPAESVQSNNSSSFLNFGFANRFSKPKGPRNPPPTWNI
Put plainly: Inhibition of lymphoid specific tyrosine phosphatase.

The values below come from BindingDB's records for doi:10.1016/j.bmcl.2008.03.079 (Columbia University, 2008).

For orientation: IC50 means the concentration that inhibits the measured activity by half. A high value points to weaker potency.

The structures appear in SMILES notation. A value given as a limit tells only on which side of the number the result lay.

Compound `O=C(O)Cn1c(O)cn(N=Cc2ccc(-c3ccc(O)c(C(=O)O)c3)s2)c1=O` displayed a concentration for half-maximal inhibition (IC50) of more than 44 µM.
Then `COC(=O)c1cc(-c2ccc(C=Nn3cc(O)[nH]c3=O)s2)ccc1O`, with more than 44 µM; and `O=C(O)c1cc(-c2ccc(C=Nn3cc(O)[nH]c3=O)o2)ccc1O`, with more than 44 µM; and `COC(=O)c1cc(-c2ccc(C=Nn3cc(O)[nH]c3=O)o2)ccc1O`, with more than 44 µM.
